In the CheMixHub viscosity set:

Test: xn = mol fraction of the nth substance listed

C[N+](C)(C)CC(=O)[O-] + O=C1O[C@H]([C@@H](O)CO)C(O)=C1O
Conditions	viscosity [mPa·s]
298.15 K, 101.33 kPa, x2 = 0.5	721.2

Brc1ccccc1 + CC(C)CO
viscosity [mPa·s], 101.33 kPa
Conditions	x1 = 0.1065	x1 = 0.1936	x1 = 0.2949	x1 = 0.4015	x1 = 0.5016	x1 = 0.6014	x1 = 0.7006	x1 = 0.7967	x1 = 0.8995
298.15 K	2.649	2.205	1.831	1.532	1.36	1.231	1.144	1.088	1.055
313.15 K	1.727	1.483	1.28	1.116	1.022	0.9534	0.9062	0.8769	0.8637

C1COCCO1 + OCCO
viscosity [mPa·s], 100 kPa
Conditions	x1 = 0.1014	x1 = 0.2054	x1 = 0.2968	x1 = 0.3998	x1 = 0.4966	x1 = 0.5992	x1 = 0.7005	x1 = 0.7985	x1 = 0.8969
293.15 K	15.53	11.26	8.022	5.534	3.77	2.758	2.223	1.737	1.405
298.15 K	12.4	9.243	6.602	4.535	3.152	2.436	1.983	1.569	1.329
303.15 K	10.21	7.423	5.425	3.682	–	2.169	1.78	1.401	–
